Entries after “also recorded” stand apart in the source; their conditions may differ.
How the values were obtained:
tetanus toxin = system: tetanus toxin; set-up: species or system mice; settings: mouse, in vivo
human macrophages = assay: FACS analysis of human macrophages stimulated with AT1002; type: cell-based
human monocytes = assay: FACS analysis of human monocytes stimulated with AT1002; type: cell-based; settings: 18 hours
C57BL/6 female mice = settings: mouse, in vivo
[1] = AT1002 20 micrograms/ml and 1 microgram/ml

Row | Substance | protection against tetanus toxin challenge (paralysis and death) (tetanus toxin) | expression of CD40 on macrophages (human macrophages; 18 hours) | membrane expression of CD86 on macrophages (human macrophages; 18 hours) | membrane expression of HLA-DR on macrophages (human macrophages; 18 hours) | membrane expression of HLA-I on macrophages (human macrophages; 18 hours) | expression of CD80 on macrophages (human macrophages; 18 hours, not reported in the figure) | upregulation of HLA-I and HLA-DR molecules compared with LPS (human macrophages; macrophages, LPS positive control) | expression of CD80 (B7-1) on monocytes (human monocytes) | expression of CD86 (B7.2) on monocytes (human monocytes) | membrane expression of HLA-DR on monocytes (human monocytes; [1]) | membrane expression of HLA-I on monocytes (human monocytes; [1]) | geometric mean titers of anti-TT IgA in vaginal secretions (C57BL/6 female mice) | geometric mean titers of anti-TT serum IgA (C57BL/6 female mice) | geometric mean titers of anti-TT serum IgG (C57BL/6 female mice) | relatively most effective AT1002 dose (anti-TT serum IgG) (C57BL/6 female mice) | range of anti-TT IgG titer (tetanus toxin)
1 | FCIGRL [AT1002] | all protected | upregulates | strongly upregulates | strongly upregulates | strongly upregulates | also upregulated | more efficient than LPS | not upregulated | not upregulated | upregulates | upregulates | induces IgA against the co-administered antigen in a mucosal district far from the site of immunization | induces serum IgA against the co-administered antigen | higher as compared to those of animals immunized with TT alone; also recorded: higher than those observed after four doses | 30 nmol | 
2 | Tetanus toxoid [TT alone] |  |  |  |  |  |  |  |  |  |  |  |  |  |  |  | 256-4,096

Source: patent US20060165722A1 (priority 2005, published 2006)
